This is an account of results in ChEMBL document CHEMBL1201862, “PubChem BioAssay data set” (2004).

Some test systems named below: OVCAR-3; CCRF-CEM; IGROV-1; HCT-15; HOP-62; SK-MEL-5; LOX IMVI; 786-0; M14; HL-60; RPMI-8226; NCI-H522; Malme-3M; SF-295; SF-539; MCF7; UACC-257; MDA-MB-231; MDA-MB-435; SK-MEL-2.
Holding throughout (test): growth of human tumour cells (NCI), 48 h

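96-well plates; 48 h exposure; 5 concentrations. Endpoints by linear interpolation between flanking doses. Not reached: highest tested concentration assigned. The concentration for 50% growth inhibition is given as GI50.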 Active and inactive are the calls of the source. No stated cut-off is given here; in the data, active = GI50 up to about 1.1 µM and inactive = higher.

For the compound `CC(C)[C@]12O[C@H]1[C@@H]1O[C@@]13[C@@]1(C)CCC4=C(COC4=O)[C@@H]1C[C@@H]1O[C@@]13C2=O` [TRIPTONIDE], the GI50 in the experiment with OVCAR-3 is < 0.0133 µM (active); with CCRF-CEM it was 0.063 µM (active); in the experiment on IGROV-1, < 0.01 µM (active); in the experiment on HCT-15, 0.0251 µM; in the experiment on HOP-62 it was < 0.01 µM (active); in the experiment with SK-MEL-5 it was 0.0141 µM (active). The GI50 was < 0.01 µM (active) in the experiment on LOX IMVI; 0.0248 µM (active) with 786-0; 0.0173 µM (active) in the experiment on M14; < 0.01 µM (active) in the experiment with HL-60; < 0.01 µM (active) in the experiment with RPMI-8226; < 0.0186 µM (active) in the experiment on NCI-H522. Moreover, the GI50 in the experiment with Malme-3M is 0.0191 µM (active); in the experiment with SF-295, 0.0771 µM (active); in the experiment on SF-539, 0.0171 µM (active); in the experiment on MCF7, < 0.01 µM (active); with UACC-257, < 0.0164 µM (active); in the experiment on MDA-MB-231, 0.0248 µM (active). Also, the GI50 was 0.0103 µM (active) in the experiment on MDA-MB-435 and 0.0119 µM (active) in the experiment on SK-MEL-2.
Take `CC1=C/C(=N\N(C)C)C(C(O)(C(F)(F)F)C(F)(F)F)C(C)(C)C1` (stereo not given): the GI50 with OVCAR-3 is 26.4 µM (inactive); in the experiment with CCRF-CEM, > 100 µM (inactive); in the experiment on IGROV-1 it was > 100 µM (inactive); in the experiment with HCT-15, greater than 100 µM; in the experiment with HOP-62 it was > 100 µM (inactive); with SK-MEL-5 it was 80.2 µM (inactive). Further, the GI50 in the experiment on LOX IMVI was > 100 µM (inactive); with 786-0 it was > 100 µM (inactive); in the experiment on M14 it was > 100 µM (inactive); with HL-60, > 100 µM (inactive); with RPMI-8226 it was 46.8 µM (inactive); with NCI-H522 it was > 100 µM (inactive). In addition, the GI50 in the experiment with Malme-3M was 97.1 µM (inactive); in the experiment on SF-295 it was > 100 µM (inactive); in the experiment with SF-539, > 100 µM (inactive); in the experiment on MCF7, > 100 µM (inactive); with UACC-257, > 100 µM (inactive); in the experiment on MDA-MB-231, > 100 µM (inactive). Further, the GI50 in the experiment with MDA-MB-435 and in the experiment on SK-MEL-2 was > 100 µM (inactive) each time.
Regarding `O=C(Nc1nncs1)NS(=O)(=O)n1c(=S)sc2ccccc21`, the GI50 with OVCAR-3 is > 100 µM (inactive); in the experiment on CCRF-CEM it was 24.9 µM (inactive); in the experiment with IGROV-1, > 100 µM (inactive); in the experiment on HCT-15, greater than 100 µM; in the experiment with HOP-62, > 100 µM (inactive); in the experiment with SK-MEL-5 it was > 100 µM (inactive). In addition, the GI50 is > 100 µM (inactive) with LOX IMVI; > 100 µM (inactive) with 786-0; > 100 µM (inactive) with M14; 51.9 µM (inactive) in the experiment with HL-60; > 100 µM (inactive) in the experiment with RPMI-8226; 48.1 µM (inactive) in the experiment with NCI-H522. Besides, the GI50 in the experiment on Malme-3M, in the experiment on SF-295, with SF-539, in the experiment with MCF7, with UACC-257 and in the experiment on MDA-MB-231 was > 100 µM (inactive) throughout. In addition, the GI50 in the experiment on MDA-MB-435 and with SK-MEL-2 was > 100 µM (inactive) throughout.
Consider `COc1ccc(N/N=C2\C3=C(CCC(C)(C)O3)C(=O)c3ccccc32)cc1`, for which the GI50 in the experiment with OVCAR-3 is 14.9 µM (inactive); with CCRF-CEM, 16 µM (inactive); in the experiment with IGROV-1 it was 15.2 µM (inactive); in the experiment with HCT-15 it was 13.7 µM; in the experiment with HOP-62, 20.9 µM (inactive); in the experiment on SK-MEL-5 it was 12.2 µM (inactive). Also, the GI50 with LOX IMVI is 16.2 µM (inactive); with 786-0, 18.3 µM (inactive); in the experiment with M14, 20.7 µM (inactive); with HL-60, 15.3 µM (inactive); in the experiment on RPMI-8226 it was 16.8 µM (inactive); in the experiment on NCI-H522, 17 µM (inactive). Moreover, the GI50 is 20.9 µM (inactive) in the experiment on Malme-3M; 14.8 µM (inactive) in the experiment with SF-295; 24.4 µM (inactive) in the experiment with SF-539; 12.4 µM (inactive) in the experiment with MCF7; 19.7 µM (inactive) in the experiment with UACC-257; 22.2 µM (inactive) in the experiment on MDA-MB-231. For the same compound, the results for the GI50 in the experiment with MDA-MB-435 and in the experiment on SK-MEL-2 were 17.1 µM (inactive) and 21.8 µM (inactive), respectively.
With `COC1/C=C\C=C(/C)C(=O)NC2=CC(=O)C(O)=C(CC(C)CC(OC)C(O)C(C)/C=C(\C)C1OC(N)=O)C2=O` (stereo not given), the GI50 in the experiment with OVCAR-3 was 0.325 µM (active); in the experiment with CCRF-CEM it was 0.0282 µM (active); with IGROV-1 it was 0.757 µM (active); with HCT-15 it was 2.26 µM; in the experiment with HOP-62, 13.7 µM (inactive); with SK-MEL-5, 0.859 µM (active). In addition, the GI50 is 0.406 µM (active) with LOX IMVI; 10.1 µM (inactive) in the experiment with 786-0; 0.56 µM (active) with M14; 0.169 µM (active) with HL-60; 0.0789 µM (active) in the experiment with RPMI-8226; 0.0596 µM (active) in the experiment on NCI-H522. The GI50 in the experiment on Malme-3M is 0.0668 µM (active); with SF-295, 4.99 µM (inactive); in the experiment with SF-539, 0.984 µM (active); in the experiment on MCF7, 0.0826 µM (active); in the experiment on UACC-257, 0.384 µM (active); in the experiment on MDA-MB-231, 0.366 µM (active). For the same compound, the values for the GI50 in the experiment on MDA-MB-435 and in the experiment on SK-MEL-2 were 0.0537 µM (active) and 0.893 µM (active), respectively.
With `CC(C)(C)OC(=O)CC(NC(=O)OC(C)(C)C)C(=O)N[C@@H]1CCCC[C@H]1C(=O)OCc1ccccc1` (stereo not given in full), the GI50 was 28.9 µM (inactive) with OVCAR-3; 20.8 µM (inactive) with CCRF-CEM; 37 µM (inactive) in the experiment with IGROV-1; 14.8 µM in the experiment with HCT-15; 27.8 µM (inactive) in the experiment on HOP-62; 12.1 µM (inactive) in the experiment with SK-MEL-5. Also, the GI50 was 29 µM (inactive) in the experiment with LOX IMVI; 70.6 µM (inactive) with 786-0; 36.1 µM (inactive) with M14; 24.7 µM (inactive) with HL-60; 20.5 µM (inactive) in the experiment on RPMI-8226; > 10 µM (inactive) in the experiment on NCI-H522. The GI50 with Malme-3M is 33.7 µM (inactive); in the experiment on SF-295, 24.7 µM (inactive); with SF-539, 24.5 µM (inactive); in the experiment on MCF7, 26.9 µM (inactive); in the experiment with UACC-257, 30.2 µM (inactive); in the experiment with MDA-MB-231 it was 32.5 µM (inactive). The GI50 is 29.6 µM (inactive) in the experiment on MDA-MB-435 and 32.3 µM (inactive) in the experiment on SK-MEL-2.
As for `COc1ccc2nc3cc([N+](=O)[O-])ccc3c(NNc3ccc([N+](=O)[O-])cc3)c2c1`, the GI50 in the experiment on OVCAR-3 was 22.4 µM (inactive); with CCRF-CEM, 30.8 µM (inactive); in the experiment with IGROV-1, 7.96 µM (inactive); in the experiment on HCT-15 it was 55.8 µM; with HOP-62, 57.3 µM (inactive); with SK-MEL-5 it was 19.8 µM (inactive). Besides, the GI50 with LOX IMVI was 61.1 µM (inactive); in the experiment on 786-0, 36.9 µM (inactive); in the experiment with M14, 43.4 µM (inactive); with HL-60, 20.3 µM (inactive); in the experiment with RPMI-8226, 18.7 µM (inactive); in the experiment on NCI-H522 it was 29.3 µM (inactive). The GI50 in the experiment with Malme-3M was 30.1 µM (inactive); with SF-295 it was 22 µM (inactive); in the experiment with SF-539 it was 45.6 µM (inactive); with MCF7, 4.01 µM (inactive); with UACC-257, 1.83 µM (inactive); with MDA-MB-231 it was 44 µM (inactive). Also, the GI50 is 31.6 µM (inactive) in the experiment on MDA-MB-435 and 27.6 µM (inactive) in the experiment on SK-MEL-2.
